pIC50: −log10 of the molar value.
Biological target: T1, N-methyl-D-aspartate (NMDA) receptor containing the NR2B subunit (Rattus norvegicus, UniProt P35439+Q00960)
T1 construct: Membranes were prepared by homogenization of the whole brain minus cerebellum and medulla oblongata; from tissue; host or cells: rat whole brain minus cerebellum and medulla oblongata, membranes
Assay: 3H-Ro 25-6981 binding (displacement) to rat brain membranes
Parameters: species or system rat (male Fullinsdorf albino)
Conditions: 3H-Ro 25-6981 5 nM, 2 hours at 4° C., pH 7.4, rat whole brain minus cerebellum and medulla oblongata
Excerpt: In the following test RO 25-6981 ([R-(R*,S*)]-a-(4-Hydroxy-phenyl)-b-methyl-4-(phenyl-methyl)-1-piperidine propanol)has been used as a high and selective blocker of N-methyl-D-aspartate (NMDA) receptor containing the NR2B subjunit. The interaction of RO 25-6981 with NMDA receptors is characterized by the described test in vitro.
3H-Ro 25-6981 binding (Ro 25-6981 is [R-(R*,S*)]-a-(4-Hydroxy-phenyl)-b-methyl-4-(phenyl-methyl)-1-piperidine propanol)
Male Fullinsdorf albino rats weighing between 150-200 g were used. Membranes were prepared by homogenization of the whole brain minus cerebellum and medulla oblongata with a Polytron (10.000 rpm, 30 seconds), in 25 volumes of a cold Tris-HCl 50 mM, EDTA 10 mM, pH 7.1 buffer. The homogenate was centrifuged at 48.000 g for 10 minutes at 4° C. The pellet was resuspended using the Polytron in the same volume of buffer and the homogenate was incubated at 37° C. for 10 minutes. After centrifugation the pellet was homogenized in the same buffer and frozen at -80° C. for at least 16 hours but not more than 10 days. For the binding assay the homogenate was thawed at 37° C., centrifuged and the pellet was washed three times as above in a Tris-HCl 5 mM, pH 7.4 cold buffer. The final pellet was resuspended in the same buffer and used at a final concentration of 200 μg of protein/ml.
3H-Ro 25-6981 binding experiments were performed using a Tris-HCl 50 mM, pH 7.4 buffer. For displacement experiments 5 nM of 3H-Ro 25-6981 were used and non specific binding was measured using 10 μm of tetrahydroisoquinoline and usually it accounts for 10% of the total. The incubation time was 2 hours at 4° C. and the assay was stopped by filtration on Whatmann GF/B glass fiber filters (Unifilter-96, Packard, Zurich, Switzerland). The filters were washed 5 times with cold buffer. The radioactivity on the filter was counted on a Packard Top-count microplate scintillation counter after addition of […] of microscint 40 (Canberra Packard S. A., Zurich, Switzerland).
The effects of compounds were measured using a minimum of 8 concentrations and repeated at least once. The pooled normalized values were analyzed using a non-linear regression calculation program which provide IC50 with their relative upper and lower 95% confidence limits (RS1, BBN, USA).

T1 sequence (Q00960 27-1482, other chains not shown): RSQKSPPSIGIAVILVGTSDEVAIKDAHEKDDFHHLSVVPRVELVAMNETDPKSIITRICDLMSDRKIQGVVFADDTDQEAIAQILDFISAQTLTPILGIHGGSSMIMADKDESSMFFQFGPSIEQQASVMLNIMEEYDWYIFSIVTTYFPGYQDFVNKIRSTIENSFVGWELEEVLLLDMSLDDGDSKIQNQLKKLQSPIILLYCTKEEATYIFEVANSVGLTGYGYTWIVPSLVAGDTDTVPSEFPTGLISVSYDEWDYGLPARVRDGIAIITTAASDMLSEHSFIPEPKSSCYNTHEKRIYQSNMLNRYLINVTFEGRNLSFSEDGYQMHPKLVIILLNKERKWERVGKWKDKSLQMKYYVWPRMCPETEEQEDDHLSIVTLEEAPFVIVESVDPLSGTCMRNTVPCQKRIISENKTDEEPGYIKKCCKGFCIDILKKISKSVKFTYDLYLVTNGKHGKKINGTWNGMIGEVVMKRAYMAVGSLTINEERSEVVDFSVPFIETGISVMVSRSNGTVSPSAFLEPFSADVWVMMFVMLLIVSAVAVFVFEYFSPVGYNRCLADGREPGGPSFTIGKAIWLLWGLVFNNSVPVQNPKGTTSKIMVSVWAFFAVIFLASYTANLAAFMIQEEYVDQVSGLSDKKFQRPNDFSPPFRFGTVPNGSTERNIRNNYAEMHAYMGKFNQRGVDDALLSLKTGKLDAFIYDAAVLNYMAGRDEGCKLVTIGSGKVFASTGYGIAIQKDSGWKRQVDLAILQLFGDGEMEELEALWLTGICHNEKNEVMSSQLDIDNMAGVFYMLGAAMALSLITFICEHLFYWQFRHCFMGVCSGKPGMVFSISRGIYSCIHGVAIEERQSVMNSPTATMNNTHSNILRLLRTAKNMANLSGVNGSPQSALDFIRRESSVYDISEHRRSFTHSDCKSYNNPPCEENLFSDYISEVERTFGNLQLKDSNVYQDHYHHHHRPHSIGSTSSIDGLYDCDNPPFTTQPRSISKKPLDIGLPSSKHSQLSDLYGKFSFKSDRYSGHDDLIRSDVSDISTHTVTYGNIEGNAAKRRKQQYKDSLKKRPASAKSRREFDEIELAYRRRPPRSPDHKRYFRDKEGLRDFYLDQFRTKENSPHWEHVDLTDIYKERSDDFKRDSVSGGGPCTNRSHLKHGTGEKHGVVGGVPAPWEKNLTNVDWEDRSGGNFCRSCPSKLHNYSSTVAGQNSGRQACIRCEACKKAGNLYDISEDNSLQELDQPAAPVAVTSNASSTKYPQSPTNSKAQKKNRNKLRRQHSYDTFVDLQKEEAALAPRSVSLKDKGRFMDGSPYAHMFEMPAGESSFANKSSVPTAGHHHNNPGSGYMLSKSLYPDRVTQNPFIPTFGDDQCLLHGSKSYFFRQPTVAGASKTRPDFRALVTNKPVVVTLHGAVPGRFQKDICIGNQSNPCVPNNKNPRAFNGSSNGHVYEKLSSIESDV

Point of comparison: `COc1ccc(CC[C@@H]2CCC[C@H](Cc3ccc(O)cc3)N2)cc1` (racemic) [Example 6, (2RS,6SR)-4-[6-[2-(4-methoxy-phenyl)-ethyl]-piperidin-2-ylmethyl]-phenol], pIC50 7.35. Against it:
- Oc1ccc([C@@H](O)[C@@H]2CC[C@@H](CCc3ccccc3)N2)cc1 (racemic) [Example 1, 4-[(RS)-hydroxy-[(2SR,5RS)-5-phenethyl-pyrrolidin-2-yl]-methyl]-phenol] — 0.35 log units higher, 7.70
- Oc1ccc([C@H]2OCCN3[C@@H](CCc4ccccc4)CC[C@H]23)cc1 (racemic) [Example 35, (1RS,6SR,8aRS)-4-(6-phenethyl-hexahydro-pyrrolo[2,1-c][1,4]oxazin-1-yl)-phenol] — 0.30 log units lower, 7.05
- COc1ccc(CC[C@H]2CC[C@@H]([C@H](O)c3ccc(O)c(F)c3)N2)cc1 (racemic) [Example 2, 2-fluoro-4-[(RS)-hydroxy-[(2SR,5SR)-5-[2-(4-methoxy-phenyl)-ethyl]-pyrrolidin-2-yl]-methyl]-phenol] — within 0.2 log units, 7.52
- COc1ccc(CC[C@@H]2CCC[C@H](C(O)c3ccc(O)cc3)N2)cc1 (stereo partly shown) [Example 3] — within 0.2 log units, 7.52
- COc1ccc(CCC2CCC(C(=O)c3ccc(O)cc3)N2)cc1 (racemic) [Example 7, Mixture of (2RS,5RS)-- and (2RS,5SR)-(4-hydroxy-phenyl)-[5-[2-(4-methoxy-phenyl)-ethyl]-pyrrolidin-2-yl]-methanone] — 0.20 log units lower, 7.15
- COc1ccc(CC[C@@H]2CC[C@H](Cc3ccc(O)cc3)N2)cc1 (racemic) [Example 4, (2RS,5RS)-4-[5-[2-(4-methoxy-phenyl)-ethyl]-pyrrolidin-2-ylmethyl]-phenol] — within 0.2 log units, 7.40
- Oc1ccc([C@H]2OCN3[C@H](CCc4ccccc4)CC[C@@H]23)cc1 (racemic) [Example 37, (1RS ,5RS,7aSR)-4-(5-phenethyl-tetrahydro-pyrrolo[1,2-c]oxazol-1-yl)-phenol] — within 0.2 log units, 7.30
- Oc1ccc([C@@H](O)[C@@H]2CC[C@@H](CCc3ccccc3)N2)cc1O (racemic) [Example 5, 4-[(RS)-hydroxy-[(2SR,5RS)-5-phenethyl-pyrrolidin-2-yl]-methyl]-benzene-1,2-diol] — within 0.2 log units, 7.40

Tested on: NMDA receptors
Assay: not given
Conditions: Journ. of Pharmacology, Vol. 283, No.8, 1285-1297; cited from earlier work

For `C[C@@H](CN1CCC(Cc2ccccc2)CC1)[C@@H](O)c1ccc(O)cc1` [RO 25-6981, [R-(R*,S*)]-a-(4-Hydroxy-phenyl)-b-methyl-4-(phenyl-methyl)-1-piperidine propanol], the “demonstration of NMDA receptor block (in words)” value is listed as “highly selective, activity-dependent blocker of NMDA receptors”.

Source: patent publication US6153624A, “Pyrrolidine and piperidine derivatives and treatment of neurodegenerative disorders” (Hoffman-LaRoche Inc., priority 1998, dated 2000)
